What was measured:
MK801 treated rats = test: Morris Water Maze (MWM) task, MK801 animal model of schizophrenia; format: in vivo, rat
Protocol: Morris Water Maze (MWM): The MWM consisted of a water pool (diameter=1.8 m; depth=0.6 m) containing water at 26±1° C. A hidden platform was located 1.5 cm below the water surface. Within the testing room, only distal visuo-spatial cues were available to the rats for location of the submerged platform. A video camera was placed above the center of the pool for tracking the rat, and a video tracking system (Noldus Information Technology b.v., Wageninpen, The Netherlands) with online digital output, directly fed data into a computer and analyzed. Data were analyzed by using an Etho-Vision automated tracking system (Noldus Information Technology).
Fifteen minutes before the behavioral procedures conducted at the fourth day, the subject was injected i.p. with an 0.1 mg/kg dose of MK801 or saline, for a total volume of 1 ml per kg of body weight. Next, the subjects passed the three behavioral procedures, described in the following paragraphs.
The MWM, a hippocampal-dependent visuo-spatial learning task, was used to assess the subjects' spatial learning/memory. The ability of an animal to locate a hidden platform submerged under water by using extra-maze cues from the test environment was examined. The rats were trained in a pool 1.8 m in diameter and 0.6 m high, containing water at 26±1° C. A 10 cm square transparent platform was hidden in a constant position in the pool submerged 1 cm below the water level. Within the testing room only distal visuo-spatial cues were available to the rats for location of the submerged platform.
Rats were given four trials per day, to find the hidden platform (acquisition phase). The escape latency, i.e., the time required by the rat to find and climb onto the platform, was recorded for up to 120 sec. Each rat was allowed to remain on the platform for 30 sec, and was then removed to its home cage.
Morris Water Maze (MWM): Escape latency, the time between placing the rat in the pool until it located the platform, was measured during behavioral testing. The escape latency was analyzed by means of […] repeated measures analysis of variance (ANOVA) with a between-subjects measure of ‘group’ (treatment group) and a within-subjects measure of ‘trail’ (effects amongst groups in the four different trials).
The MWM test was then performed (see FIG. 1 for results). A significant main effect of ‘group’, ‘trail’ and a significant ‘group’×‘trails’ interaction was found in the repeated measured ANOVA for the MWM task [F(5,35)=9.699, p<0.001; F(3,33)=31.551, p<0.001; F(15,91)=1.824, p<0.05; respectively].

[1] = system: patients who experience first psychotic episode; test: CANTAB Intra-extra dimensional set-shifts (IED), adjuvant study; format: in vivo, human; details: atypical antipsychotic drug+minocycline 200 mg/day vs +placebo; time x group p<0.0001
Protocol: The study was carried out in patients who experience first psychotic episode, and has followed the patient for a total duration of 6 months. As the study examines Minocycline as an adjuvant drug, the sample includes patients receiving one of the following atypical anti-psychotic drugs: Risperdal, Zyprexa, Geodon, Seroquel, and Leponex. […] In addition, the subjects were assessed by a battery of computerized neuropsychological tests (CANTAB—Cambridge Neuropsychological Test Automated Battery), measuring attention, memory, and planning. Minocycline was given as an add-on therapy. Prior to randomization into minocycline/placebo adjuvant treatment, a preliminary (lead-in phase) screening phase of placebo treatment was undertaken: Placebo was given as an adjuvant to all patients for two weeks. […] Randomization was then carried out by the principal investigator. […] Clinical status was evaluated by the aforementioned scales at the onset of the study, every week for the first 6 weeks, and then once a month for the rest of the study period. Cognitive capabilities were assessed by the neuropsychological battery of tests according to the following schedule: upon initiation of the study (referred to as visit 1 in FIGS. 5-8), 3 months (referred to as visit 2 in FIGS. 5-8), and 6 months (referred to as visit 3 in FIGS. 5-8) after the start of the study. […]

[2] = system: patients who experience first psychotic episode; test: CANTAB Stockings of Cambridge (SOC), adjuvant study; format: in vivo, human; details: atypical antipsychotic drug+minocycline 200 mg/day vs +placebo; p=0.001
Protocol: The study was carried out in patients who experience first psychotic episode, and has followed the patient for a total duration of 6 months. As the study examines Minocycline as an adjuvant drug, the sample includes patients receiving one of the following atypical anti-psychotic drugs: Risperdal, Zyprexa, Geodon, Seroquel, and Leponex. […] In addition, the subjects were assessed by a battery of computerized neuropsychological tests (CANTAB—Cambridge Neuropsychological Test Automated Battery), measuring attention, memory, and planning. Executive function was tested by two tasks of the CANTAB: planning was tested by a computerized modification of the Tower of London, and working memory by a spatial working memory task. Minocycline was given as an add-on therapy. […] Clinical status was evaluated by the aforementioned scales at the onset of the study, every week for the first 6 weeks, and then once a month for the rest of the study period. Cognitive capabilities were assessed by the neuropsychological battery of tests according to the following schedule: upon initiation of the study (referred to as visit 1 in FIGS. 5-8), 3 months (referred to as visit 2 in FIGS. 5-8), and 6 months (referred to as visit 3 in FIGS. 5-8) after the start of the study. […]

CN(C)c1ccc(O)c2c1C[C@H]1C[C@H]3[C@H](N(C)C)C(O)=C(C(N)=O)C(=O)[C@@]3(O)C(O)=C1C2=O [minocycline]
escape latency, impairments induced by MK801 (MK801 treated rats; main procedure: minocycline 35 mg/kg x 3 days, MK801 0.1 mg/kg i.p.): reduce the impairments induced by MK801
escape latency, trail 4 (MK801 treated rats; minocycline 35 mg/kg before MK801, vs MK801 group, p<0.05): significant difference when compared to the MK801 group
escape latency, improvement compared with haloperidol (MK801 treated rats; minocycline 35 mg/kg+MK801 vs haloperidol 0.4 mg/kg+MK801): somewhat more significant than that caused by haloperidol
dose dependence of effect in the MWM task (MK801 treated rats; minocycline 20, 25, 30, 35 mg/kg before MK801): good dose dependent effect
escape latency (MK801 treated rats; minocycline 20 and 25 mg/kg for three consecutive days before MK801, vs saline and MK801 groups): no significant differences with the MK801 treated rats
escape latency (MK801 treated rats; minocycline 30 and 35 mg/kg for three consecutive days before MK801, vs saline group): did not differ from the saline treated group
IED measures (number of stages completed, total errors adjusted, Pre-ED errors, EDS errors) [1]: improved significantly more than the placebo group on all the IED measures except for the Pre-ED errors measure
SOC number of problems solved in minimum moves [2]: improved significantly more than the placebo group
